Test results reported in patent US20030176366A1, “Topical application of ascorbic acid compounds for augmenting the synthesis of epidermal ceramides” (SOCIETE L'OREAL S.A., priority 2000, published 2003).

Legend:
[1] = test system: skin equivalent marketed by EPISKIN; experiment: Effect on the synthesis of epidermal lipids in EPISKIN skin equivalent (HPTLC, densitometry); type: cell-based; conditions: for percentage increase in Ceramides 4-7 relative to the untreated control / percentage increase in cer. 6-7 relative to the untreated control: treated for five days
Experimental: Ascorbyl glucoside and ascorbic acid itself were tested on a skin equivalent marketed by EPISKIN (Lyon, France), after culturing the latter for 7 days. The culture and assay media were those contained in the kit marketed by the supplier. Each compound was tested at 5 μg/ml and 0.05 μg/ml (as vitamin C equivalent) in the culture medium. The reconstructed epidermes were treated for five days, the culture medium being replaced every 48 hours. The control consisted of an identical epidermis equivalent which was subjected to topical application of culture medium without the compound to be tested.
At the end of the incubation period, the epidermis equivalent was detached from its collagenic support. The preparation of the lipids of the epidermis equivalent and their analysis by HPTLC or high-performance thin-layer chromatography were carried out according to the technique and with the buffers described by M. Ponec (1991, Adv. Lipid Res., 24:83-117). At the end of the migration, densitometric analysis was carried out using a CAMAG TLC model Scanner 3 densitometric reader.
The results obtained are reported in the Table below as a percentage increase in ceramides 4, 5, 6 and 7 relative to the untreated control.

[2] = test system: reconstructed epidermes; experiment: Lipid profile of treated reconstructed epidermes (densitometric analysis); type: cell-based; conditions: applied for 6 days at 1.10×10^−4 M; relative to the control and relative to ascorbic acid; not quantified
Experimental: The test described in Example 1 was repeated using various ascorbic acid derivatives, applied for 6 days at 1.10×10^-4 M on reconstructed […] subjected to 7 days of culture. The quantity of epidermal ceramides produced was, however, not quantified. Instead, a densitometric analysis was carried out using a CAMAG TLC® model Scanner 3 densitometric reader. The lipid profile of the treated […] determined, in which: The lipid content was determined of the sample of reconstructed epidermis either untreated (control), or treated with ascorbic acid (vitamin C) or with one of the ascorbic acid derivatives A to G indicated above.

[3] = 0.05 μg/ml as vitamin C equiv. in culture medium
[4] = 5 μg/ml as vitamin C equiv. in culture medium

O=C1O[C@H]([C@@H](O)CO)C(O)=C1O [ascorbic acid]
percentage increase in Ceramides 4-7 relative to the untreated control [1, 3]: +7% | percentage increase in cer. 6-7 relative to the untreated control [1, 3]: +15% | percentage increase in Ceramides 4-7 relative to the untreated control [1, 4]: +21% | percentage increase in cer. 6-7 relative to the untreated control [1, 4]: −17%

CCCCCCCCCCCCCCCC(=O)OC1=C(O)C(C2COC(C)(C)O2)OC1=O (stereo not shown) [Compound D, (5,6-isopropylidene)ascorbyl 2-hexadecanoate]
polar ceramide content of reconstructed epidermes / effect on epidermal lipogenesis [2]: significantly increases the polar ceramide content

O=C1O[C@H]([C@@H](O)CO)C(O)=C1OS(=O)(=O)[O-].O=C1O[C@H]([C@@H](O)CO)C(O)=C1OS(=O)(=O)[O-].[Ba+2] [Compound F, barium 2-ascorbyl sulfate, reference compound]
polar ceramide content of reconstructed epidermes / effect on epidermal lipogenesis [2]: no significant effect on the epidermal lipogenesis

CC1(C)OCC(C2OC(=O)C(OC(=O)c3ccccc3)=C2O)O1 (stereo not shown) [Compound G, (5,6-isopropylidene)ascorbyl 2-benzoate]
polar ceramide content of reconstructed epidermes / effect on epidermal lipogenesis [2]: significantly increases the polar ceramide content

O=C(/C=C/c1ccccc1)OC1=C(O)[C@@H]([C@@H](O)CO)OC1=O [Compound B, ascorbyl 2-cinnamate]
polar ceramide content of reconstructed epidermes / effect on epidermal lipogenesis [2]: significantly increases the polar ceramide content

O=C1O[C@H]([C@@H](O)CO)C(O)=C1O[C@H]1O[C@H](CO)[C@@H](O)[C@H](O)[C@H]1O [ascorbyl glucoside, 2-O-α-D-glucopyranosyl of L-ascorbic acid]
percentage increase in Ceramides 4-7 relative to the untreated control [1, 3]: +11% | percentage increase in cer. 6-7 relative to the untreated control [1, 3]: +65% | percentage increase in Ceramides 4-7 relative to the untreated control [1, 4]: +40% | percentage increase in cer. 6-7 relative to the untreated control [1, 4]: +59% | increase in the synthesis of the epidermal lipids (in particular of the most polar ceramides) compared with ascorbic acid ([1]; tested at the same concentration as ascorbic acid): much higher for ascorbyl glucoside than for ascorbic acid

COC(=O)COC1=C(OCC(=O)OC)C(C(O)CO)OC1=O (stereo not shown) [Compound E, ascorbyl 2,3-bis(methoxycarbonyl-methoxy) ether, reference compound]
polar ceramide content of reconstructed epidermes / effect on epidermal lipogenesis [2]: no significant effect on the epidermal lipogenesis

CC1(C)OCC(C2OC(=O)C(O[C@H]3O[C@H](CO)[C@@H](O)[C@H](O)[C@H]3O)=C2O)O1 (stereo partly drawn) [Compound A, 2-O-α-D-glucopyranosyl of (5,6-isopropylidene)ascorbic acid]
polar ceramide content of reconstructed epidermes / effect on epidermal lipogenesis [2]: significantly increases the polar ceramide content

COc1cc(/C=C/C(=O)OC2=C(O)[C@@H]([C@@H](O)CO)OC2=O)ccc1O [Compound C, ascorbyl 2-ferulate]
polar ceramide content of reconstructed epidermes / effect on epidermal lipogenesis [2]: significantly increases the polar ceramide content
